{"source": "ChEMBL document CHEMBL4043145", "about": "“Pyridine-pyrimidine amides that prevent HGF-induced epithelial scattering by two distinct mechanisms” (Bioorg Med Chem Lett, 2017)", "key": {"MCF7 [1]": {"tested_on": "MCF7", "assay": "Antiproliferative activity against human MCF7 cells at 10 uM relative to control", "type": "functional, cell-based"}, "A2780 [2]": {"tested_on": "A2780", "assay": "Cell cycle arrest in human A2780 cells assessed as accumulation at G2/M phase at 100 nM (reference value: 19.42 to 20.43%)", "type": "functional"}, "MFE-280 [3]": {"tested_on": "MFE-280", "assay": "Cell cycle arrest in human MFE280 cells assessed as accumulation at G2/M phase at 300 nM (reference value: 16.43 to 17.9%)", "type": "functional"}, "MFE-280 [4]": {"tested_on": "MFE-280", "assay": "Cell cycle arrest in human MFE280 cells assessed as accumulation at G1 phase at 1000 nM (reference value: 64.99 to 67.86%)", "type": "functional"}, "MFE-296 [5]": {"tested_on": "MFE-296", "assay": "Cell cycle arrest in human MFE296 cells assessed as accumulation at G2/M phase at 100 nM (reference value: 15.71 to 17.04%)", "type": "functional"}, "MCF7 [6]": {"tested_on": "MCF7", "assay": "Cell cycle arrest in human MCF7 cells assessed as accumulation at S phase at 100 nM (reference value: 25.36 to 26.82%)", "type": "functional"}, "T47D [7]": {"tested_on": "T47D", "assay": "Cell cycle arrest in human T47D cells assessed as accumulation at S phase at 1000 nM (reference value: 19.89 to 24.55%)", "type": "functional"}, "T47D [8]": {"tested_on": "T47D", "assay": "Cell cycle arrest in human T47D cells assessed as accumulation at G1 phase at 100 nM (reference value: 45.5 to 57.8%)", "type": "functional"}, "MFE-280 [9]": {"tested_on": "MFE-280", "assay": "Cell cycle arrest in human MFE280 cells assessed as accumulation at G2/M phase at 100 nM (reference value: 16.43 to 17.9%)", "type": "functional"}, "MFE-296 [10]": {"tested_on": "MFE-296", "assay": "Cell cycle arrest in human MFE296 cells assessed as accumulation at G2/M phase at 1000 nM (reference value: 15.71 to 17.04%)", "type": "functional"}, "MFE-280 [11]": {"tested_on": "MFE-280", "assay": "Cell cycle arrest in human MFE280 cells assessed as accumulation at G2/M phase at 1000 nM (reference value: 16.43 to 17.9%)", "type": "functional"}, "MFE-296 [12]": {"tested_on": "MFE-296", "assay": "Cell cycle arrest in human MFE296 cells assessed as accumulation at G1 phase at 100 nM (reference value: 61.05 to 64.87%)", "type": "functional"}, "MCF7 [13]": {"tested_on": "MCF7", "assay": "Cell cycle arrest in human MCF7 cells assessed as accumulation at G2/M phase at 300 nM (reference value: 20.06 to 22.33%)", "type": "functional"}, "MCF7 [14]": {"tested_on": "MCF7", "assay": "Cell cycle arrest in human MCF7 cells assessed as accumulation at S phase at 1000 nM (reference value: 25.36 to 26.82%)", "type": "functional"}, "MFE-280 [15]": {"tested_on": "MFE-280", "assay": "Induction of apoptosis in human MFE280 cells assessed as late apoptotic cells at 300 nM by 7-AAD/Annexin staining-based assay (reference value: 6 to 7.4%)", "type": "functional"}, "MFE-280 [16]": {"tested_on": "MFE-280", "assay": "Cell cycle arrest in human MFE280 cells assessed as accumulation at G1 phase at 100 nM (reference value: 64.99 to 67.86%)", "type": "functional"}, "PC-3 [17]": {"tested_on": "PC-3", "assay": "Cell cycle arrest in human p53-null PC3 cells assessed as accumulation at G1 phase at 1000 nM (reference value: 50.77 to 51.16%)", "type": "functional"}, "PC-3 [18]": {"tested_on": "PC-3", "assay": "Cell cycle arrest in human p53-null PC3 cells assessed as accumulation at G2/M phase at 100 nM (reference value: 18.37 to 18.96%)", "type": "functional"}, "T47D [19]": {"tested_on": "T47D", "assay": "Cell cycle arrest in human T47D cells assessed as accumulation at S phase at 300 nM (reference value: 19.89 to 24.55%)", "type": "functional"}, "MCF7 [20]": {"tested_on": "MCF7", "assay": "Cell cycle arrest in human MCF7 cells assessed as accumulation at G1 phase at 300 nM (reference value: 47.47 to 52.3%)", "type": "functional"}, "PC-3 [21]": {"tested_on": "PC-3", "assay": "Cell cycle arrest in human p53-null PC3 cells assessed as accumulation at G2/M phase at 300 nM (reference value: 18.37 to 18.96%)", "type": "functional"}, "T47D [22]": {"tested_on": "T47D", "assay": "Cell cycle arrest in human T47D cells assessed as accumulation at G2/M phase at 1000 nM (reference value: 20.58 to 28.8%)", "type": "functional"}, "MFE-280 [23]": {"tested_on": "MFE-280", "assay": "Cell cycle arrest in human MFE280 cells assessed as accumulation at S phase at 300 nM (reference value: 14.14 to 15.66%)", "type": "functional"}, "MFE-280 [24]": {"tested_on": "MFE-280", "assay": "Cell cycle arrest in human MFE280 cells assessed as accumulation at S phase at 1000 nM (reference value: 14.14 to 15.66%)", "type": "functional"}, "PC-3 [25]": {"tested_on": "PC-3", "assay": "Cell cycle arrest in human p53-null PC3 cells assessed as accumulation at G1 phase at 100 nM (reference value: 50.77 to 51.16%)", "type": "functional"}, "MFE-280 [26]": {"tested_on": "MFE-280", "assay": "Cell cycle arrest in human MFE280 cells assessed as accumulation at G1 phase at 300 nM (reference value: 64.99 to 67.86%)", "type": "functional"}, "MFE-280 [27]": {"tested_on": "MFE-280", "assay": "Induction of apoptosis in human MFE280 cells assessed as early apoptotic cells at 1000 nM by 7-AAD/Annexin staining-based assay (reference value: 5.1 to 6.2%)", "type": "functional"}, "A2780 [28]": {"tested_on": "A2780", "assay": "Cell cycle arrest in human A2780 cells assessed as accumulation at G1 phase at 1000 nM (reference value: 55.26 to 55.66%)", "type": "functional"}, "T47D [29]": {"tested_on": "T47D", "assay": "Cell cycle arrest in human T47D cells assessed as accumulation at G1 phase at 1000 nM (reference value: 45.5 to 57.8%)", "type": "functional"}, "MFE-280 [30]": {"tested_on": "MFE-280", "assay": "Induction of apoptosis in human MFE280 cells assessed as early apoptotic cells at 300 nM by 7-AAD/Annexin staining-based assay (reference value: 5.1 to 6.2%)", "type": "functional"}, "PC-3 [31]": {"tested_on": "PC-3", "assay": "Cell cycle arrest in human p53-null PC3 cells assessed as accumulation at S phase at 300 nM (reference value: 29.08 to 29.33%)", "type": "functional"}, "A2780 [32]": {"tested_on": "A2780", "assay": "Cell cycle arrest in human A2780 cells assessed as accumulation at G1 phase at 100 nM (reference value: 55.26 to 55.66%)", "type": "functional"}, "PC-3 [33]": {"tested_on": "PC-3", "assay": "Cell cycle arrest in human p53-null PC3 cells assessed as accumulation at S phase at 100 nM (reference value: 29.08 to 29.33%)", "type": "functional"}, "MCF7 [34]": {"tested_on": "MCF7", "assay": "Cell cycle arrest in human MCF7 cells assessed as accumulation at S phase at 300 nM (reference value: 25.36 to 26.82%)", "type": "functional"}, "A2780 [35]": {"tested_on": "A2780", "assay": "Cell cycle arrest in human A2780 cells assessed as accumulation at S phase at 100 nM (reference value: 21.16 to 22.81%)", "type": "functional"}, "MCF7 [36]": {"tested_on": "MCF7", "assay": "Induction of apoptosis in human MCF7 cells assessed as late apoptotic cells at 1000 nM by 7-AAD/Annexin staining-based assay (reference value: 1 to 2.1%)", "type": "functional"}, "MFE-296 [37]": {"tested_on": "MFE-296", "assay": "Induction of apoptosis in human MFE296 cells assessed as nuclear debris at 300 nM by 7-AAD/Annexin staining-based assay (reference value: 0.4 to 0.8%)", "type": "functional"}, "MFE-296 [38]": {"tested_on": "MFE-296", "assay": "Cell cycle arrest in human MFE296 cells assessed as accumulation at G1 phase at 1000 nM (reference value: 61.05 to 64.87%)", "type": "functional"}, "A2780 [39]": {"tested_on": "A2780", "assay": "Cell cycle arrest in human A2780 cells assessed as accumulation at S phase at 1000 nM (reference value: 21.16 to 22.81%)", "type": "functional"}}}
{"smiles": "O=C(Nc1ccc(-c2cccc(Cl)c2)cn1)c1cncnc1", "values": [{"measurement": "EC50", "setting": "MCF7 [1]", "result": 29, "unit": "nM"}, {"measurement": "Activity", "setting": "A2780 [2]", "result": 20.89, "unit": "%"}, {"measurement": "Activity", "setting": "MFE-280 [3]", "result": 37.86, "unit": "%"}, {"measurement": "Activity", "setting": "MFE-280 [4]", "result": 34.18, "unit": "%"}, {"measurement": "Activity", "setting": "MFE-296 [5]", "result": 21.13, "unit": "%"}, {"measurement": "Activity", "setting": "MCF7 [6]", "result": 19.1, "unit": "%"}, {"measurement": "Activity", "setting": "T47D [7]", "result": 21.38, "unit": "%"}, {"measurement": "Activity", "setting": "T47D [8]", "result": 54.23, "unit": "%"}, {"measurement": "Activity", "setting": "MFE-280 [9]", "result": 18.95, "unit": "%"}, {"measurement": "Activity", "setting": "MFE-296 [10]", "result": 72.12, "unit": "%"}, {"measurement": "Activity", "setting": "MFE-280 [11]", "result": 46.61, "unit": "%"}, {"measurement": "Activity", "setting": "MFE-296 [12]", "result": 53.3, "unit": "%"}, {"measurement": "Activity", "setting": "MCF7 [13]", "result": 32.59, "unit": "%"}, {"measurement": "Activity", "setting": "MCF7 [14]", "result": 16.61, "unit": "%"}, {"measurement": "Activity", "setting": "MFE-280 [15]", "result": 9.5, "unit": "%"}, {"measurement": "Activity", "setting": "MFE-280 [16]", "result": 61.48, "unit": "%"}, {"measurement": "Activity", "setting": "PC-3 [17]", "result": 5.07, "unit": "%"}, {"measurement": "Activity", "setting": "PC-3 [18]", "result": 25.26, "unit": "%"}, {"measurement": "Activity", "setting": "T47D [19]", "result": 27.41, "unit": "%"}, {"measurement": "Activity", "setting": "MCF7 [20]", "result": 16.22, "unit": "%"}, {"measurement": "Activity", "setting": "PC-3 [21]", "result": 60.72, "unit": "%"}, {"measurement": "Activity", "setting": "T47D [22]", "result": 43.07, "unit": "%"}, {"measurement": "Activity", "setting": "MFE-280 [23]", "result": 21.09, "unit": "%"}, {"measurement": "Activity", "setting": "MFE-280 [24]", "result": 18.57, "unit": "%"}, {"measurement": "Activity", "setting": "PC-3 [25]", "result": 51.5, "unit": "%"}, {"measurement": "Activity", "setting": "MFE-280 [26]", "result": 39.17, "unit": "%"}, {"measurement": "Activity", "setting": "MFE-280 [27]", "result": 5.9, "unit": "%"}, {"measurement": "Activity", "setting": "A2780 [28]", "result": 13.03, "unit": "%"}, {"measurement": "Activity", "setting": "T47D [29]", "result": 31.65, "unit": "%"}, {"measurement": "Activity", "setting": "MFE-280 [30]", "result": 5.4, "unit": "%"}, {"measurement": "Activity", "setting": "PC-3 [31]", "result": 22.85, "unit": "%"}, {"measurement": "Activity", "setting": "A2780 [32]", "result": 58.01, "unit": "%"}, {"measurement": "Activity", "setting": "PC-3 [33]", "result": 22.12, "unit": "%"}, {"measurement": "Activity", "setting": "MCF7 [34]", "result": 23.22, "unit": "%"}, {"measurement": "Activity", "setting": "A2780 [35]", "result": 18.92, "unit": "%"}, {"measurement": "Activity", "setting": "MCF7 [36]", "result": 2.4, "unit": "%"}, {"measurement": "Activity", "setting": "MFE-296 [37]", "result": 2.6, "unit": "%"}, {"measurement": "Activity", "setting": "MFE-296 [38]", "result": 8.62, "unit": "%"}, {"measurement": "Activity", "setting": "A2780 [39]", "result": 7.1, "unit": "%"}]}
